Experimental data reported in the NIST ThermoML archive (doi:10.1016/j.jct.2015.11.023).

Experiments:
[1] = wn = mass fraction of the nth substance listed; details: for surface tension liquid-gas: Maximal bubble pressure; for mass density: 100 kPa, Liquid, Vibrating tube method
[2] = refractive index (Na D-line) (dimensionless); wn = mass fraction of the nth substance listed; details: 100 kPa, Liquid, Standard Abbe refractometry

CCCCC[n+]1ccccc1.N#C[N-]C#N [1-pentylpyridinium dicyanamide] + O
Details | mass density [kg/m3] | refractive index | surface tension liquid-gas [mN/m]
[1], 303.15 K, w2 = 0.00124 | 1049.94 | – | –
[1], 303.15 K, w2 = 0.00159 | – | – | 53.3
[1], 303.15 K, w2 = 0.00269 | 1049.85 | – | –
[1], 303.15 K, w2 = 0.00309 | – | – | 53.7
[1], 303.15 K, w2 = 0.00423 | 1049.72 | – | –
[1], 303.15 K, w2 = 0.00463 | – | – | 54
[1], 303.15 K, w2 = 0.00567 | 1049.59 | – | –
[1], 303.15 K, w2 = 0.00611 | – | – | 54.3
[1], 303.15 K, w2 = 0.00714 | 1049.48 | – | –
[1], 303.15 K, w2 = 0.00762 | – | – | 54.6
[1], 308.15 K, w2 = 0.00124 | 1046.92 | – | –
[1], 308.15 K, w2 = 0.00159 | – | – | 53.1
[1], 308.15 K, w2 = 0.00269 | 1046.83 | – | –
[1], 308.15 K, w2 = 0.00309 | – | – | 53.3
[1], 308.15 K, w2 = 0.00423 | 1046.7 | – | –
[1], 308.15 K, w2 = 0.00463 | – | – | 53.7
[1], 308.15 K, w2 = 0.00567 | 1046.57 | – | –
[1], 308.15 K, w2 = 0.00611 | – | – | 54
[1], 308.15 K, w2 = 0.00714 | 1046.45 | – | –
[1], 308.15 K, w2 = 0.00762 | – | – | 54.3
[1], 313.15 K, w2 = 0.00124 | 1043.92 | – | –
[1], 313.15 K, w2 = 0.00159 | – | – | 52.8
[1], 313.15 K, w2 = 0.00269 | 1043.82 | – | –
[1], 313.15 K, w2 = 0.00309 | – | – | 53
[1], 313.15 K, w2 = 0.00423 | 1043.69 | – | –
[1], 313.15 K, w2 = 0.00463 | – | – | 53.4
[1], 313.15 K, w2 = 0.00567 | 1043.56 | – | –
[1], 313.15 K, w2 = 0.00611 | – | – | 53.7
[1], 313.15 K, w2 = 0.00714 | 1043.44 | – | –
[1], 313.15 K, w2 = 0.00762 | – | – | 54
[1], 318.15 K, w2 = 0.00124 | 1040.93 | – | –
[1], 318.15 K, w2 = 0.00159 | – | – | 52.4
[1], 318.15 K, w2 = 0.00269 | 1040.82 | – | –
[1], 318.15 K, w2 = 0.00309 | – | – | 52.7
[1], 318.15 K, w2 = 0.00423 | 1040.7 | – | –
[1], 318.15 K, w2 = 0.00463 | – | – | 53
[1], 318.15 K, w2 = 0.00567 | 1040.56 | – | –
[1], 318.15 K, w2 = 0.00611 | – | – | 53.3
[1], 318.15 K, w2 = 0.00714 | 1040.44 | – | –
[1], 318.15 K, w2 = 0.00762 | – | – | 53.6
[1], 323.15 K, w2 = 0.00124 | 1037.95 | – | –
[1], 323.15 K, w2 = 0.00159 | – | – | 52.1
[1], 323.15 K, w2 = 0.00269 | 1037.84 | – | –
[1], 323.15 K, w2 = 0.00309 | – | – | 52.3
[1], 323.15 K, w2 = 0.00423 | 1037.72 | – | –
[1], 323.15 K, w2 = 0.00463 | – | – | 52.7
[1], 323.15 K, w2 = 0.00567 | 1037.57 | – | –
[1], 323.15 K, w2 = 0.00611 | – | – | 53
[1], 323.15 K, w2 = 0.00714 | 1037.45 | – | –
[1], 323.15 K, w2 = 0.00762 | – | – | 53.3
[1], 328.15 K, w2 = 0.00124 | 1034.99 | – | –
[1], 328.15 K, w2 = 0.00159 | – | – | 51.8
[1], 328.15 K, w2 = 0.00269 | 1034.88 | – | –
[1], 328.15 K, w2 = 0.00309 | – | – | 52
[1], 328.15 K, w2 = 0.00423 | 1034.75 | – | –
[1], 328.15 K, w2 = 0.00463 | – | – | 52.4
[1], 328.15 K, w2 = 0.00567 | 1034.61 | – | –
[1], 328.15 K, w2 = 0.00611 | – | – | 52.7
[1], 328.15 K, w2 = 0.00714 | 1034.48 | – | –
[1], 328.15 K, w2 = 0.00762 | – | – | 53
[1], 333.15 K, w2 = 0.00124 | 1032.05 | – | –
[1], 333.15 K, w2 = 0.00159 | – | – | 51.5
[1], 333.15 K, w2 = 0.00269 | 1031.93 | – | –
[1], 333.15 K, w2 = 0.00309 | – | – | 51.8
[1], 333.15 K, w2 = 0.00423 | 1031.8 | – | –
[1], 333.15 K, w2 = 0.00463 | – | – | 52.1
[1], 333.15 K, w2 = 0.00567 | 1031.65 | – | –
[1], 333.15 K, w2 = 0.00611 | – | – | 52.4
[1], 333.15 K, w2 = 0.00714 | 1031.52 | – | –
[1], 333.15 K, w2 = 0.00762 | – | – | 52.7
[1], 338.15 K, w2 = 0.00124 | 1029.11 | – | –
[1], 338.15 K, w2 = 0.00159 | – | – | 51.3
[1], 338.15 K, w2 = 0.00269 | 1029 | – | –
[1], 338.15 K, w2 = 0.00309 | – | – | 51.6
[1], 338.15 K, w2 = 0.00423 | 1028.86 | – | –
[1], 338.15 K, w2 = 0.00463 | – | – | 51.9
[1], 338.15 K, w2 = 0.00567 | 1028.71 | – | –
[1], 338.15 K, w2 = 0.00611 | – | – | 52.2
[1], 338.15 K, w2 = 0.00714 | 1028.58 | – | –
[1], 338.15 K, w2 = 0.00762 | – | – | 52.4
[2], 303.15 K, w2 = 0.00159 | – | 1.5285 | –
[2], 303.15 K, w2 = 0.00322 | – | 1.5282 | –
[2], 303.15 K, w2 = 0.00513 | – | 1.5279 | –
[2], 303.15 K, w2 = 0.00661 | – | 1.5277 | –
[2], 303.15 K, w2 = 0.00821 | – | 1.5274 | –
[2], 308.15 K, w2 = 0.00159 | – | 1.527 | –
[2], 308.15 K, w2 = 0.00322 | – | 1.5268 | –
[2], 308.15 K, w2 = 0.00513 | – | 1.5265 | –
[2], 308.15 K, w2 = 0.00661 | – | 1.5263 | –
[2], 308.15 K, w2 = 0.00821 | – | 1.5261 | –
[2], 313.15 K, w2 = 0.00159 | – | 1.5255 | –
[2], 313.15 K, w2 = 0.00322 | – | 1.5253 | –
[2], 313.15 K, w2 = 0.00513 | – | 1.525 | –
[2], 313.15 K, w2 = 0.00661 | – | 1.5248 | –
[2], 313.15 K, w2 = 0.00821 | – | 1.5245 | –
[2], 318.15 K, w2 = 0.00159 | – | 1.5241 | –
[2], 318.15 K, w2 = 0.00322 | – | 1.5239 | –
[2], 318.15 K, w2 = 0.00513 | – | 1.5236 | –
[2], 318.15 K, w2 = 0.00661 | – | 1.5234 | –
[2], 318.15 K, w2 = 0.00821 | – | 1.5232 | –
[2], 323.15 K, w2 = 0.00159 | – | 1.5228 | –
[2], 323.15 K, w2 = 0.00322 | – | 1.5225 | –
[2], 323.15 K, w2 = 0.00513 | – | 1.5222 | –
[2], 323.15 K, w2 = 0.00661 | – | 1.522 | –
[2], 323.15 K, w2 = 0.00821 | – | 1.5217 | –
[2], 328.15 K, w2 = 0.00159 | – | 1.521 | –
[2], 328.15 K, w2 = 0.00322 | – | 1.5208 | –
[2], 328.15 K, w2 = 0.00513 | – | 1.5205 | –
[2], 328.15 K, w2 = 0.00661 | – | 1.5203 | –
[2], 328.15 K, w2 = 0.00821 | – | 1.5201 | –
[2], 333.15 K, w2 = 0.00159 | – | 1.5192 | –
[2], 333.15 K, w2 = 0.00322 | – | 1.519 | –
[2], 333.15 K, w2 = 0.00513 | – | 1.5188 | –
[2], 333.15 K, w2 = 0.00661 | – | 1.5186 | –
[2], 333.15 K, w2 = 0.00821 | – | 1.5184 | –
[2], 338.15 K, w2 = 0.00159 | – | 1.5177 | –
[2], 338.15 K, w2 = 0.00322 | – | 1.5175 | –
[2], 338.15 K, w2 = 0.00513 | – | 1.5172 | –
[2], 338.15 K, w2 = 0.00661 | – | 1.517 | –
[2], 338.15 K, w2 = 0.00821 | – | 1.5168 | –
